Usually solubility stands for the concentration that dissolves in the medium under given conditions. A low value points to a poorly soluble substance.

In brackets after ≈: the same amount, converted by molar mass.

Data set [1] in a line: Metabolic stability in human liver microsomes. Type of data set: in vitro ADME. The method, then: (§1) PBS Sol/Toxicity pH7.4 refers to solubility of the compound in Phosphate Buffered Saline (PBS) at pH7.4. […] Parasites were RH-YFP expressing tachyzoites (Tachy) and EGS (Brady) strains. Studies of effects of inhibitors on HFF or on T.gondii tachyzoites were performed with triplicate wells in at least two biological replicate experiments. Studies of effects on bradyzoites were performed at least twice in at least two biological replicate experiments. Compounds with much less inhibition of mammalian than T. gondii cytochrome bc in the saffarine enzyme assay (indicated by **) provide potential to further develop compounds, if unanticipated toxicity occurs from JAG21.
(§2) Structure Activity Relationship (SAR) and comparison of effect on T.gondii and HFF enzyme activity. […] The MDCK-MDR1 Permeability Assay was also performed. […] These were measured by Chem Partners.
For orientation: Liver microsomes are vesicles of endoplasmic reticulum, rich in cytochrome P450 enzymes.

The test system of data set [2] is T. gondii EGS strain bradyzoites. Put plainly: In vitro challenge assay for EGS strain bradyzoites in HFF. Conditions: 500 nM. It counts as cell-based, Toxoplasma gondii. As to the method: PBS Sol/Toxicity pH7.4 refers to solubility of the compound in Phosphate Buffered Saline (PBS) at pH7.4. […] Tachy/Brady IC50 was determined in studies in which cultures of parasites in HFF were treated with varying concentrations of the compound and there was 50% inhibition of the replication (number) of parasites. Parasites were RH-YFP expressing tachyzoites (Tachy) and EGS (Brady) strains. Studies of effects of inhibitors on HFF or on T.gondii tachyzoites were performed with triplicate wells in at least two biological replicate experiments. Studies of effects on bradyzoites were performed at least twice in at least two biological replicate experiments. Compounds with much less inhibition of mammalian than T. gondii cytochrome bc in the saffarine enzyme assay (indicated by **) provide potential to further develop compounds, if unanticipated toxicity occurs from JAG21. […]
Cells were fixed using 4% paraformaldehyde and stained with Fluorescein-labeled Dolichos Biflorus Agglutinin, DAPI, and BAG1. […] Effects of compounds were quantitated by counting cysts in controls and treated cultures. Dolichos staining delimited structures and single organisms that remained were counted in a representative field of view. This was then multiplied by a factor determined by the total area of the cover slip in order to estimate the number of cysts and organisms in each condition. […]

Data set [3] concerns Human Foreskin Fibroblast (HFF). Put plainly: Cytotoxicity assay with WST-1 on HFF. It counts as cell-based. The method, then: PBS Sol/Toxicity pH7.4 refers to solubility of the compound in Phosphate Buffered Saline (PBS) at pH7.4. […] Tachy/Brady IC50 was determined in studies in which cultures of parasites in HFF were treated with varying concentrations of the compound and there was 50% inhibition of the replication (number) of parasites. Parasites were RH-YFP expressing tachyzoites (Tachy) and EGS (Brady) strains. Studies of effects of inhibitors on HFF or on T.gondii tachyzoites were performed with triplicate wells in at least two biological replicate experiments. Studies of effects on bradyzoites were performed at least twice in at least two biological replicate experiments. Compounds with much less inhibition of mammalian than T. gondii cytochrome bc in the saffarine enzyme assay (indicated by **) provide potential to further develop compounds, if unanticipated toxicity occurs from JAG21.
Cytotoxicity Assays in parallel with RH Strain T.gondii in vitro studies. Toxicity assays used WST-1 cell proliferation reagent (Roche) as in Fomovska et al. (2012). HFF were grown on a flat, clear-bottomed, black 96-well plate. Confluent HFF were treated with inhibitory compounds at concentrations of 10 μM and 50 μM. Compounds were diluted in IMDM-C, and 20 μL were added to each designated well, with triplicates for each condition. A gradient with 2 fold-decreasing concentrations of DMSO from 10% to 0% in colorless, translucent IMDM-C was used as a control. The plate was incubated for 72 hours at 37° C. 10 μL WST-1 reagent (Roche) were added to each well. Cells were incubated for 30-60 minutes. Absorbance was read using a fluorimeter at 420 nm. A higher degree of color change (and absorbance) indicated mitochondrial activity and cell viability.
Because T. gondii grows inside cells, if a compound were toxic to host HFF then it would make the compound appear to be spuriously effective (Fomovska et al. 2012; Fomovska et al. 2012a), when in actuality only toxicity for the host cell would be measured. Cytotoxicity to HFF was therefore assessed for all compounds at 10 μM. Results of this experiment are in Table 1, toxicity column. A two-way ANOVA and subsequent pairwise comparison found none of the differences in absorbance, compared to the media-DMSO vehicle controls, to be statistically significant (p>0.05). Most of these compounds are not toxic at 10 μM (the limit of solubility) and that cytotoxicity to cells can be attributed to DMSO in the solution, not the compound.
Background: Tetrazolium assays rely on reduction of a dye to a coloured formazan, in cell work by metabolically active cells.

The target in a further data set is hERG (Homo sapiens, UniProt Q12809). Briefly: hERG liability. It counts as in vitro ADME. The method, then: as §2
(Block of hERG is tested as a sign of cardiac risk.)

The test system of another data set is T. gondii ΔRPS13. Put plainly: ΔRPS13 infection of interferon receptor knockout mice. Type of data set: in vivo, Toxoplasma gondii. As to conditions: 100,000 ΔRPS13; TAF day -1, JAG21 14 days, then tetracycline; vs either alone; not durable. From the text:
RPS13 Δ In vivo. This G1 arrested parasite persists in tissue culture for prolonged times in the absence of tetracycline (Hutson et al 2010), but in immune competent mice it cannot be rescued with teteracycline, or LNAME (L-N^G-Nitro arginine methyl ester, an analog of arginine) used as an antagonist of nitric oxide synthase (NOS) that inhibits NO production, or both together (Hutson et al. 2010).
In pilot studies, herein, interferon α receptor knockout mice that were not treated were observed following infection. At 7 and at 14 days following infection, spleen and liver were removed and immune peroxidase stained. At 14 days a group of mice were treated with anhydrotetracycline and when a subset of these mice died their spleen and liver were removed and immune peroxidase stained.
As in the pilot studies, this RPS13 Δ parasite also was used to infect interferon α receptor knockout mice in a treatment study. In this separate study, groups of mice were infected with RPS13 Δ. […] At the time they appeared to have substantial illness or at the termination of the experiment they were euthanized, tissues fixed in formalin and stained with hematoxylin and eosin or immunoperoxidase stained and parasite burden was assessed.

Data set [4] in a line: Kinetic/aqueous solubility in PBS pH 7.4. It counts as physicochemical. The method, then:
as §1, §2

Chain of hERG (Q12809 whole entry): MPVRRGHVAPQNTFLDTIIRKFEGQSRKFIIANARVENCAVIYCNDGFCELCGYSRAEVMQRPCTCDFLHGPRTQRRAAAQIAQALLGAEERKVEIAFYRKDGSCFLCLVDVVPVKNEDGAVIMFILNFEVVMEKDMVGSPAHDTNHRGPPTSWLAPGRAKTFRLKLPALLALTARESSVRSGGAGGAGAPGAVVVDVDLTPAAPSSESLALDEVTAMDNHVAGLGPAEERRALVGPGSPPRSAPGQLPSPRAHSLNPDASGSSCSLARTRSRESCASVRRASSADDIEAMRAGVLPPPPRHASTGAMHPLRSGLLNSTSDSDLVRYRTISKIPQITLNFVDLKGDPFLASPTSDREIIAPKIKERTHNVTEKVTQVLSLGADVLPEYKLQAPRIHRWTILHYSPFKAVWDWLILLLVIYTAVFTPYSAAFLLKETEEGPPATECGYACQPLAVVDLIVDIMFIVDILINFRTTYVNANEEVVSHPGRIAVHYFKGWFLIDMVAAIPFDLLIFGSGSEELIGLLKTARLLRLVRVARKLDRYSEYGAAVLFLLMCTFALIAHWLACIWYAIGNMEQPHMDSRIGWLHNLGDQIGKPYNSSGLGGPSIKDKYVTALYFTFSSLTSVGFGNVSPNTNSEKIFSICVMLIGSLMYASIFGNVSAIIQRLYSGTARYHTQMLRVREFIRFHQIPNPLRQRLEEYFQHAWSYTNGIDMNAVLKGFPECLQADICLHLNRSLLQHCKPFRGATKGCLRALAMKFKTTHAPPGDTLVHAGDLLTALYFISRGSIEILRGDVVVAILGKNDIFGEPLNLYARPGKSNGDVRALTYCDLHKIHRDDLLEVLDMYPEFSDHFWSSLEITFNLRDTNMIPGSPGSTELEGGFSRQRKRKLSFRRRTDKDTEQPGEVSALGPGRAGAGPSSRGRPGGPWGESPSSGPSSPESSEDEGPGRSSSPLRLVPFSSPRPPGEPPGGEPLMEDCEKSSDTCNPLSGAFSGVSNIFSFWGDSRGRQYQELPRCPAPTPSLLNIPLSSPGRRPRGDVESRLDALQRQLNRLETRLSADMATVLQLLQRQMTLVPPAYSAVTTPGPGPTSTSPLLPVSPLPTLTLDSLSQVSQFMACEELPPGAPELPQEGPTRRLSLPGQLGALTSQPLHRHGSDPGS

On to `Cc1[nH]c2c(c(=O)c1-c1ccc(Oc3ccc(OC(F)(F)F)cc3)cc1)CCCC2` [JAG021, 2-methyl-3-(4-(4-(trifluoromethoxy)phenoxy)phenyl)-5,6,7,8-tetrahydroquinolin-4-one], for which the “Remaining in human liver microsomes” value in data set [1] (after 45 minutes) is above 99%. The half-life in data set [1] (predicted half-life in human liver microsomes, unit in cell, read-out: T1/2 (H)) was above 168 h. In data set [2], the “EGS bradyzoites in treated cultures” value is “not seen”. The “Toxicity to human cells in the in vitro model (HFF)” value in data set [3] is on record as “not toxic”. For the same molecule, the hERG liability result on hERG is recorded as “no hERG liability”. Moreover, the “Survival time, JAG21 combined with tafenoquine” value in the data set with T. gondii ΔRPS13 is given as “improved time of survival”. The same molecule yielded a solubility in data set [4] (amorphous compounds) of 7 µM (≈ 2.91 µg/mL). Moreover, the “Solubility of the microcrystalline form” value in data set [4] (microcrystalline form) worked out at 3.5 µM. For the same molecule, the “PBS Sol pH7.4” value in data set [4] (solubility in Phosphate Buffered Saline pH 7.4, first value of cell) is 7.07 μM.

Source of the values: patent US20230181564A1, “Potent Tetrahydroquinolone Eliminates Apicomplexan Parasites” (The University of Chicago, priority 2020, published 2023).
